Measurements from patent publication US11118200B2, “Method for preparing amines from aldehydes and ketones by biocatalysis” (COMMISSARIAT A L'ENERGIE ATOMIQUE ET AUX ENERGIES …, priority 2017, dated 2021).
Marks after values point to notes of the source that are not given here. Blank lines part the entries; values can stand above or below the compound they belong to.

Tests used:
[1] = test system: enzyme of SEQ ID NO:1; test: Screening of carbonyl-containing compounds with ammonia as amine source (specific activity, absorbance at 340 nm); format: biochemical, Mycobacterium smegmatis; details: for Specific activity, SEQ ID NO: 1: 10 mM of carbonyl-containing compound, ammonia as amine source; for activity of enzyme of SEQ ID NO:1 towards the substrate (in words): reductive amination
Procedure: (§1) All the reactions were conducted at 25° C. in spectrophotometric cell (10 mm light path). To a mixture of ammonium formate buffer (2 M NH4HCO2/NH4OH, pH 9.5), NADH or NADPH (0.2 mM) and an appropriate amount of purified enzyme was added.

[2] = test system: enzyme of SEQ ID NO:2; test: as above; format: biochemical, Cystobacter fuscus DSM 2262; details: for Specific activity, SEQ ID NO: 2: 10 mM of carbonyl-containing compound, ammonia as amine source; for activity of enzyme of SEQ ID NO:2 towards the substrate (in words): reductive amination
Procedure: as §1

[3] = test system: enzyme of SEQ ID NO:3; test: as above; format: biochemical, Microbacterium sp. MA1; details: for Specific activity, SEQ ID NO: 3: 10 mM of carbonyl-containing compound, ammonia as amine source; for activity of enzyme of SEQ ID NO:3 towards the substrate (in words): reductive amination
Procedure: as §1

[4] = test system: enzyme of SEQ ID NO:4; test: as above; format: biochemical, Aminomonas paucivorans DSM 12260; parameters: key to Detection of the expected compound, SEQ ID NO: 4: d: detected activity; nd: not detected activity; details: for activity of enzyme of SEQ ID NO:4 towards the substrate (in words): reductive amination; for Specific activity, SEQ ID NO: 4: 0.2 mM NADH (best of NADH/NADPH), 10 mM of carbonyl-containing compound; for Specific activity, SEQ ID NO: 4 / Detection of the expected compound, SEQ ID NO: 4: ammonia as amine source; for Detection of the expected compound, SEQ ID NO: 4: pH 9.5, 25° C.
Procedure: All the reactions were conducted at 25° C. in spectrophotometric cell (10 mm light path). To a mixture of ammonium formate buffer (2 M NH4HCO2/NH4OH, pH 9.5), NADH or NADPH (0.2 mM) and an appropriate amount of purified enzyme was added. Carbonyl-containing compound (5 or 10 mM) is then added to initiate the reaction (reaction final volume 100 μL). The initial slope measured at 340 nm determined the specific activity of the enzyme according to Beer-Lambert's law and the molar absorptivity of β-NADH (ϵ=6298 M^−1 cm^−1).

[5] = test system: enzyme of SEQ ID NO:1; test: Screening of carbonyl-containing compounds with methylamine as amine source; format: biochemical, Mycobacterium smegmatis; details: preliminary
Procedure: (§2) All the reactions were conducted at 25° C. in spectrophotometric cell (10 mm light path). To a mixture of TRIS.HCl buffer (50 mM, pH 9.5), NADH and NADPH (0.1 mM each), methylamine (500 mM) and an appropriate amount of purified enzyme was added. Carbonyl-containing compound (5 mM) is then added to initiate the reaction (reaction final volume 100 μL). The initial slope measured at 340 nm determined the specific activity of the enzyme according to Beer-Lambert's law and the molar absorptivity of β-NADH (ϵ=6298 M^−1 cm^−1).

[6] = test system: enzyme of SEQ ID NO:2; test: as above; format: biochemical, Cystobacter fuscus DSM 2262; details: preliminary
Procedure: as §2

[7] = test system: enzyme of SEQ ID NO:3; test: as above; format: biochemical, Microbacterium sp. MA1; details: preliminary
Procedure: as §2

[8] = test system: enzyme of SEQ ID NO:4; test: as above; format: biochemical, Aminomonas paucivorans DSM 12260; details: preliminary
Procedure: as §2

[9] = test system: enzyme of SEQ ID NO:5; test: as above; format: biochemical, Mycobacterium vaccae ATCC 25954; details: preliminary
Procedure: as §2

[10] = target: PheDH-AmDH K77S/N276L (Pseudobacillus badius, UniProt Q59224, K78S/N277L); details: prior-art engineered enzyme; cited from earlier work
Sequence of PheDH-AmDH K77S/N276L (Q59224 whole entry K78S/N277L): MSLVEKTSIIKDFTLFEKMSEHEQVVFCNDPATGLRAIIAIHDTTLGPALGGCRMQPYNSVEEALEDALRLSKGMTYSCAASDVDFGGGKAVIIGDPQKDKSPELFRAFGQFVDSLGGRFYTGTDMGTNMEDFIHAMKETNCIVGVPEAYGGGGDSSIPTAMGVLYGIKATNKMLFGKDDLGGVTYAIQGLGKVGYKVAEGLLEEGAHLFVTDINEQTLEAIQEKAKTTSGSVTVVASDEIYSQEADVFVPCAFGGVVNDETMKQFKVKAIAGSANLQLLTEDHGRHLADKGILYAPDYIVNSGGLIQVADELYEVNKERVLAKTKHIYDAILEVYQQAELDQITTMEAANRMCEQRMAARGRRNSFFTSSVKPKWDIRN

[11] = 0.2 mM NADPH (best of NADH/NADPH)
[12] = 0.2 mM NADH (best of NADH/NADPH)
[13] = methylamine (500 mM) as amine source, NADH/NADPH (0.1 mM each), carbonyl-containing compound 5 mM
[14] = 0.2 mM NADH (best of NADH/NADPH), listed as drawing 150

SMILES: O=C1C=CCCC1
- Specific activity, SEQ ID NO: 1 [1, 11]: 7.4^b mU.mg^-1
- Specific activity, SEQ ID NO: 2 [2, 12]: 2.5^a mU.mg^-1
- Specific activity, SEQ ID NO: 3 [3, 11]: 37.1^b mU.mg^-1

SMILES: CC1CC(=O)CC(C)C1 (stereo not shown)
- Specific activity, SEQ ID NO: 1 [1, 11]: 9.7^b mU.mg^-1
- Specific activity, SEQ ID NO: 3 [3, 11]: 61.6^b mU.mg^-1

SMILES: CC(C)C=O [2-methylpropanal]
- Specific activity, SEQ ID NO: 1 [5, 13]: 144.5 mU.mg-^1
- activity of enzyme of SEQ ID NO:1 on the substrate with methylamine (in words) ([5]; methylamine as amine source): active
- Specific activity, SEQ ID NO: 1 [1, 12]: 556.5 mU.mg^-1
- Specific activity, SEQ ID NO: 1 [1, 14]: 556.5^a mU.mg^-1
- Specific activity, SEQ ID NO: 2 [2, 12]: 119.2^a mU.mg^-1
- Specific activity, SEQ ID NO: 2 [6, 13]: 150.2 mU.mg-^1
- activity of enzyme of SEQ ID NO:2 on the substrate with methylamine (in words) ([6]; methylamine as amine source): active
- Specific activity, SEQ ID NO: 3 [3, 12]: 541.0 mU.mg^-1
- Specific activity, SEQ ID NO: 3 [3, 14]: 541.0^a mU.mg^-1
- Specific activity, SEQ ID NO: 3 [7, 13]: 851.3 mU.mg-^1
- activity of enzyme of SEQ ID NO:3 on the substrate with methylamine (in words) ([7]; methylamine as amine source): active
- Specific activity, SEQ ID NO: 4 [8, 13]: 30.3 mU.mg-^1
- activity of enzyme of SEQ ID NO:4 on the substrate with methylamine (in words) ([8]; methylamine as amine source): active
- Specific activity, SEQ ID NO: 5 [9, 13]: 262.6 mU.mg-^1
- activity of enzyme of SEQ ID NO:5 on the substrate with methylamine (in words) ([9]; methylamine as amine source): active

SMILES: CC1CCC(=O)CC1
- Specific activity, SEQ ID NO: 1 [1, 12]: 85.2^a mU.mg^-1
- Specific activity, SEQ ID NO: 2 [2, 11]: 20.4^b mU.mg^-1
- Specific activity, SEQ ID NO: 3 [3, 11]: 170.1^b mU.mg^-1

SMILES: CC1CCCCC1=O (racemic) [2-methylcyclohexanone]
- Specific activity, SEQ ID NO: 1 [1, 11]: 175.3 mU.mg^-1
- Specific activity, SEQ ID NO: 1 ([1]; 0.2 mM NADPH (best of NADH/NADPH), listed as drawing 132): 175.3^b mU.mg^-1
- Specific activity, SEQ ID NO: 2 [2, 11]: 14.8^b mU.mg^-1
- specific activity of PheDH-AmDH K77S/N276L [10]: 19.3 mU·mg^−1
- Specific activity, SEQ ID NO: 3 [3, 12]: 337.0 mU.mg^-1
- Specific activity, SEQ ID NO: 3 ([3]; 0.2 mM NADH (best of NADH/NADPH), listed as drawing 132): 337.0a mU.mg^-1

Further lines, results first:

- activity of enzyme of SEQ ID NO:4 towards the substrate (in words) [4]: inactive
- activity of enzyme of SEQ ID NO:1 towards the substrate (in words) [1]: inactive
- activity of enzyme of SEQ ID NO:2 towards the substrate (in words) [2]: inactive
- activity of enzyme of SEQ ID NO:3 towards the substrate (in words) [3]: inactive
SMILES: CC(=O)CCC(=O)O [4-oxopentanoic acid]

- Specific activity, SEQ ID NO: 4 [4]: 89.1^a mU.mg^-1
- Detection of the expected compound, SEQ ID NO: 4 [4]: d
SMILES: CCCCC=O [drawing 122]

- Specific activity, SEQ ID NO: 4 [4]: 129.6^a mU.mg^-1
- Detection of the expected compound, SEQ ID NO: 4 [4]: d
SMILES: CCC(C)C=O (stereo not shown) [drawing 124]

- Specific activity, SEQ ID NO: 1 [1, 11]: 177.7^b mU.mg^-1
- Specific activity, SEQ ID NO: 2 [2, 11]: 42.4^b mU.mg^-1
- Specific activity, SEQ ID NO: 3 [3, 11]: 324.4^b mU.mg^-1
SMILES: CC(=O)C(C)O (stereo not shown)

- Specific activity, SEQ ID NO: 1 [1, 11]: 7.7^b mU.mg^-1
- Specific activity, SEQ ID NO: 2 [2, 11]: 13.9^b mU.mg^-1
- Specific activity, SEQ ID NO: 3 [3, 11]: 23.3^b mU.mg^-1
SMILES: CC1CCC(=O)C1 (stereo not shown)

- Specific activity, SEQ ID NO: 1 [1, 11]: 6.8^b mU.mg^-1
- Specific activity, SEQ ID NO: 3 [3, 11]: 28.1^b mU.mg^-1
SMILES: CCCC(=O)CC

- activity of enzyme of SEQ ID NO:4 towards the substrate (in words) [4]: inactive
- activity of enzyme of SEQ ID NO:1 towards the substrate (in words) [1]: inactive
- activity of enzyme of SEQ ID NO:2 towards the substrate (in words) [2]: inactive
- activity of enzyme of SEQ ID NO:3 towards the substrate (in words) [3]: inactive
SMILES: CC(=O)CC(N)C(=O)O (stereo not shown) [2-amino-4-oxopentanoic acid]
